The results in this text go back to patent US6864249B2, “Piperidine and azetidine thrombin inhibitors” (LG Life Sciences, Ltd., priority 1998, dated 2005).

Series [1] concerns the target T1, Thrombin prepared from human plasma (Homo sapiens, UniProt P00734).
T1 construct: Thrombin used in this test was prepared from human plasma; from tissue; host or cells: human plasma
The series can be described thus: In vitro enzyme assay for thrombin inhibition constants (Chromozym TH substrate, Dixon plot). It counts as biochemical. Particulars: pH 7.8, room temperature. As for the experimental part:
In vitro Enzyme Assays for Determining Inhibition Constants
The activity of thrombin was measured spectrophotometrically using tosyl-Gly-Pro-Arg-p-nitroanilide acetate (Chromozym TH, Boehringer Mannheim) as a substrate. […] Each compound was dissolved in DMSO to make a 1 mM stock solution and dilutions were made thereof with assay buffer (0.1 M Tris HCl, 0.15 M NaCl, 0.1% polyethylene glycol 8000, pH 7.8). Different concentrations of inhibitor were mixed with […] of thrombin in 0.8 mL of the buffer. The mixture was incubated for 10 min at room temperature before adding 0.2 mL of the substrate to a final concentration of 20 μM. […] A graph for the reciprocal value of initial velocity to the inhibitor concentration was derived from progress curves by fitting the data using a linear regression program.

Series [2] is described as follows: Pharmacokinetic study for oral bioavailability in rats. It counts as in vivo, Male Sprague-Dawley rats. Conditions: oral dosing in rats, 30 mg/kg. How it is done: Pharmacokinetic Studies for Determining Oral Bioavailability
Male Sprague-Dawley rats (250-300 g) were restrained individually in a surgical plate (Dae Jong Instrument Company, Seoul, Korea) as supine position. The femoral artery and the femoral vein (iv only) of rats were cannulated with polyethylene tubing (PE-50, Clay Adams, Parsippany, N.J., USA) under light ether anesthesia. After complete recovery from anesthesia, rats were given 30 mg/kg of test compound dissolved in distilled water via oral gavage or given 10 mg/kg via the femoral vein for intravenous (iv) study. Blood samples (0.25 mL) were collected from the femoral artery at 0 (for control), 1 (iv only), 5, 15, 30, 60, 90 (iv only), 120, 180, and 240 min after dosing.
Blood samples were taken into heparinized tube (25 U/mL), deproteinized with 2 volumes of methanol, and centrifuged. The resulting supernatant (60 μL) was analyzed by HPLC eluting with a mixture of 0.1% trifluoroacetic acid aqueous solution and acetonitrile with a ratio of 81% to 19%. Plasma concentration of test compound was recorded and used to calculate the pharmacokinetic parameters: maximum plasma concentration of test compound (Cmax), time of maximum plasma concentration (Tmax) area under the curve (AUC), and fraction of test compound absorbed (F).
Table 2 illustrates the pharmacokinetic results for some exemplary compounds of invention obtained upon oral dosing in rats.

The mark [3] stands for this setting: male, Sprague-Dawley, rat, plasma.
[4] abbreviates: male, Sprague-Dawley, rat, plasma, read-out: AUC (converted).
Where [5] appears, read: male, Sprague-Dawley, rat, plasma, read-out: Cmax.

SMILES strings stand for the structures. Counter-ions that a name gives are not always drawn. Like-named read-outs stand apart in the source and are kept apart here.

Consider `CS(=O)(=O)N[C@@H](C(=O)N1CCC[C@H]1C(=O)NCc1ccc(CN)s1)C(c1ccccc1)c1ccccc1` [Example 5, N-methylsulfonyl-D-diphenylalanyl-L-prolyl-[(5-aminomethyl-2-thienyl)methyl]amide.TFA], for which affinity in series [1] was put at a Ki of 5.8 nM. The Tmax in series [2] (setting [3]) was 32 min. Moreover, the AUC in series [2] (setting [4]) is 4670 ng·h/mL. The Cmax in series [2] (setting [5]) was found to be 1800 ng/mL.
On the same counts, the results for `COC(=O)N[C@@H](C(=O)N1CCC[C@H]1C(=O)NCc1ccc(C(=N)N)s1)C(c1ccccc1)c1ccccc1` [Example 8, N-methoxycarbonyl-D-diphenylalanyl-L-prolyl-[(5-amidino-2-thienyl)methyl]amide.TFA] are 0.014 nM, 60 min, 26900 ng·h/mL and 9600 ng/mL.
Regarding `COC(=O)N[C@@H](C(=O)N1CCC[C@H]1C(=O)NCc1cc(C(=N)N)cs1)C(c1ccccc1)c1ccccc1` [Example 14, N-methoxycarbonyl-D-diphenylalanyl-L-prolyl-[(4-amidino-2-thienyl)methyl]amide.TFA], the Tmax in series [2] (setting [3]) is 80 min. In series [2] (setting [5]), the Cmax was found to be 4500 ng/mL. The compound also came in with an AUC in series [2] of 14200 ng·h/mL.
Compound `CS(=O)(=O)N[C@H](CC1CCCCC1)C(=O)N1CCC[C@H]1C(=O)NCc1ccc(C(=N)N)s1` [Example 22, N-methylsulfonyl-D-cyclohexylalanyl-L-prolyl-[(5-amidino-2-thienyl)methyl]amide.TFA] came in with a Ki in series [1] of 0.02 nM.
Still for that read-out and setting: in the case of `N=C(N)c1ccc(CNC(=O)[C@@H]2CCCN2C(=O)[C@@H](CC2CCCCC2)NS(=O)(=O)Cc2ccccc2)s1` [Example 23, N-benzylsulfonyl-D-cyclohexylalany-L-prolyl-[(5-amidino-2-thienyl)methyl]amide.TFA] it was 0.03 nM; in that of `N=C(N)c1ccc(CNC(=O)[C@@H]2CCCN2C(=O)[C@@H](CC2CCCCC2)NS(=O)(=O)NC2CCCCC2)s1` [Example 24, N-cyclohexylsulfamoyl-D-cyclohexylalanyl-L-prolyl-[(5-amidino-2-thienyl)methyl]amide.TFA], 0.024 nM; in that of `CNS(=O)(=O)N[C@H](CC1CCCCC1)C(=O)N1CCC[C@H]1C(=O)NCc1ccc(C(=N)N)s1` [Example 25, N-methylsulfamoyl-D-cyclohexylalanyl-L-prolyl-[(5-amidino-2-thienyl)methyl]amide.TFA], 0.053 nM.
Still for that read-out and setting: in the case of `CS(=O)(=O)N[C@@H](C(=O)N1CCC[C@H]1C(=O)NCc1csc(C(=N)N)c1)C1CCCCC1` [Example 26, N-methylsulfonyl-D-cyclohexylglycinyl-L-prolyl-[(5-amidino-3-thienyl)methyl]amide.TFA] it was 4.6 nM; in that of `COC(=O)N[C@@H](C(=O)N1CCC[C@H]1C(=O)NCc1csc(C(=N)N)c1)C1CCCCC1` [Example 27, N-methoxycarbonyl-D-cyclohexylglycinyl-L-prolyl-[(5-amidino-3-thienyl)methyl]amide.TFA], 13.7 nM; in that of `CC(C)(C)OC(=O)CN[C@@H](C(=O)N1CCC[C@H]1C(=O)NCc1ccc(C(=N)N)s1)C(c1ccccc1)c1ccccc1` [Example 28, N-(t-butoxycarbonyl)methyl-D-diphenylalanyl-L-prolyl-[(5-amidino-2-thienyl)methyl]amide.2AcOH], 0.062 nM.
Compound `CN(CC(=O)O)[C@@H](C(=O)N1CCC[C@H]1C(=O)NCc1ccc(C(=N)N)s1)C(c1ccccc1)c1ccccc1` [Example 30, N-methyl-N-carboxymethyl-D-diphenylalanyl-L-prolyl-[(5-amidino-2-thienyl)methyl]amide.2TFA] registered a Ki in series [1] of 0.003 nM.
Regarding `N=C(N)c1ccc(CNC(=O)[C@@H]2CCCN2C(=O)[C@H](NS(=O)(=O)O)C(c2ccccc2)c2ccccc2)s1` [Example 31, N-hydroxysulfonyl-D-diphenylalanyl-L-prolyl-[(5-amidino-2-thienyl)methyl]amide.TFA], the Ki in series [1] was 0.1 nM. This Ki is about 33-fold higher than that of the compound before.
On the same count and under the same terms, in the case of `CS(=O)(=O)N[C@@H](C(=O)N1CC[C@H]1C(=O)NCc1ccc(C(=N)N)s1)C(c1ccccc1)c1ccccc1` [Example 32, N-methylsulfonyl-D-diphenylalanyl-L-azetidine-2-carboxyl-[(5-amidino-2-thienyl)methyl]amide.TFA] it was 0.053 nM.
On the same count and under the same terms, for `Cc1sc(CNC(=O)[C@@H]2CCCN2C(=O)[C@H](NS(C)(=O)=O)C(c2ccccc2)c2ccccc2)cc1C(=N)N` [Example 33, N-methylsulfonyl-D-diphenylalanyl-L-prolyl-[(4-amidino-5-methyl-2-thienyl)methyl]amide.TFA] the value was 0.12 nM; for `CS(=O)(=O)N[C@@H](C(=O)N1CCC[C@H]1C(=O)NCc1ccc(C(=N)N)o1)C(c1ccccc1)c1ccccc1` [Example 34, N-methylsulfonyl-D-diphenylalanyl-L-prolyl-[(5-amidino-2-furanyl)methyl]amide.TFA], 1.4 nM.
As to `COC(=O)N[C@@H](C(=O)N1CCC[C@H]1C(=O)NCc1ccc(C(=N)N)o1)C(c1ccccc1)c1ccccc1` [Example 35, N-methoxycabonyl-D-diphenylalanyl-L-prolyl-[(5-amidino-2-furanyl)methyl]amide.TFA], in series [1], the Ki is 4.6 nM. The Tmax in series [2] (setting [3]) was 45 min. The AUC in series [2] (setting [4]) was 16100 ng·h/mL. Also, the Cmax in series [2] (setting [5]) amounted to 7100 ng/mL.
For `N=C(N)c1csc(CNC(=O)[C@@H]2CCCN2C(=O)[C@H](NS(N)(=O)=O)C(c2ccccc2)c2ccccc2)n1` [Example 37, N-aminosulfonyl-D-diphenylalanyl-L-prolyl-[(4-amidino-2-thiazolyl)methyl]amide.TFA], the Ki in series [1] is 0.12 nM. This counts as sub-nanomolar.
In turn, `Cn1c(CNC(=O)[C@@H]2CCCN2C(=O)[C@H](NS(C)(=O)=O)C(c2ccccc2)c2ccccc2)ccc1C(=N)N` [Example 38, N-methylsulfonyl-D-diphenylalanyl-L-prolyl-[(5-amidino-1-methyl-2-pyrrolyl)methyl]amide.TFA] returned a Ki in series [1] of 0.23 nM.
As to `N=C(N)c1cc(CNC(=O)[C@@H]2CCCN2C(=O)[C@H](NCC(=O)O)C(c2ccccc2)c2ccccc2)cs1` [Example 39, N-carboxymethyl-D-diphenylalanyl-L-prolyl-[(5-amidino-3-thienyl)methyl]amide.2TFA], in series [2] (setting [3]), the Tmax was 15 min. In series [2], this compound returned an AUC of 3530 ng·h/mL and a Cmax of 4600 ng/mL.
In series [1], `CC(C)(C)OC(=O)N[C@@H](C(=O)N1CCC[C@H]1C(=O)NCc1ccc(C(N)=NN)s1)C(c1ccccc1)c1ccccc1` [Example 42, N-Boc-D-Diphenylalanyl-L-prolyl-[(5-amidrazono-2-thienyl)methyl]amide.TFA] had a Ki of 84 nM. This counts as double-digit nanomolar.
For the compound `NN=C(N)c1ccc(CNC(=O)[C@@H]2CCCN2C(=O)[C@H](N)C(c2ccccc2)c2ccccc2)s1` [Example 43, D-diphenylalanyl-L-prolyl-[(5-amidrazono-2-thienyl)methyl]amide.2TFA], the affinity in series [1], expressed as Ki, was 9.1 nM.
Same read-out and setting: in the case of `CS(=O)(=O)N[C@H](Cc1ccccc1)C(=O)N1CCC[C@H]1C(=O)NCc1ccc(C(N)=NN)s1` [Example 44, N-methylsulfonyl-D-phenylalanyl-L-prolyl-[(5-amidrazono-2-thienyl)methyl]amide.TFA] it was 395 nM.
